Measurements reported in patent US11020358B2, “Method for the anti-senescence of and/or rejuvenating stem cells” (GWO XI STEM CELL APPLIED TECHNOLOGY CO., LTD., priority 2014, dated 2021).

Tests used:
ADSCs [1] = assay: SA-β-gal activity assay in ADSCs; type: cell-based, human
Description: (§1) Four portions of equal volume of the above culture medium containing the sub-cultured ADSCs were separately handled by adding thereinto H2O2 (purchased from Sigma-Aldrich) at a final concentration of 100 μM and reacting for 2 hours to induce senescence of the ADSCs, replacing the culture medium with a fresh culture medium, adding thereinto TC (trans-cinnamaldehyde, purchased from Sigma-Aldrich) at a final concentration of 0, 2, 4 or 6 μM and reacting for 6 hours, so as to obtain “H2O2 group (i.e., treated with H2O2 for 2 hours, but not treated with TC),” “H2O2+TC2 group (i.e., treated with H2O2 for 2 hours and then treated with 2 μM of TC for 6 hours),” “H2O2+TC4 group (i.e., treated with H2O2 for 2 hours and then treated with 4 μM of TC for 6 hours),” and “H2O2+TC6 group (i.e., treated with H2O2 for 2 hours and then treated with 6 μM of TC for 6 hours)” ADSCs.
Four portions of equal volume of the above culture medium containing the sub-cultured ADSCs were handled by adding thereinto TC at final concentrations of 0, 2, 4 and 6 μM respectively, and reacting for 6 hours to obtain “untreated group (i.e., without any treatment),” “TC2 group (i.e., treated only with 2 μM of TC),” “TC4 group (i.e., treated only with 4 μM of TC)” and “TC6 group (i.e., treated only with 6 μM of TC)” ADSCs.
It has been known that senescent cells in acidic environment (e.g., pH 6.0) show the activity of SA-β-gal. Therefore, the senescence level of cells can be reflected by measuring the expression level of SA-β-gal in the cells.
(§2) The ADSCs in each sample of the group obtained from Example 1 (1) were washed with PBS twice, fixed with 3% formaldehyde and washed with PBS once. […]
The staining solution was removed. […] The cells were observed and photographed under a microscope with 10-fold magnification, and the percentage of SA-β-gal activity-positive cells was calculated.

WJSCs = assay: SA-β-gal activity assay in WJSCs; type: cell-based
Description: Three portions of equal volume of the above culture medium containing the sub-cultured WJSCs were provided. The first and second portions were handled by adding thereinto H2O2 at a final concentration of 100 μM, reacting for 2 hours to induce senescence of the WJSCs, replacing the culture medium with a fresh culture medium, adding thereinto TC at final concentrations of 0 and 6 μM, respectively, and reacting for 6 hours to obtain “H2O2 group (i.e., treated with H2O2 for 2 hours, but not treated with TC)” and “H2O2+TC6 group (i.e., treated with H2O2 for 2 hours and then treated with 6 μM of TC for 6 hours) WJSCs. The third portion without any treatment was referred to as “untreated group” WJSCs.
as §2
The staining solution was removed. […] The cells were observed and photographed under a microscope with 10-fold magnification, and the percentage of SA-β-gal activity-positive cells was calculated. […]

ADSCs [2] = assay: Semiquantitative RT-PCR of senescence, cell cycle and pluripotency genes in ADSCs; type: cell-based, human
Description: as §1
The total cellular RNA of the ADSCs, BMMSCs and WJSCs in each sample of the group obtained from Example 1 (1) were extracted with an RNeasy Mini kit (purchased from Qiagen), and then reverse transcribed into cDNA by a reverse transcription kit (RT Pre Mix, purchased from iNtRON Biotechnology).
Each of the cDNA of the ADSCs of “untreated group,” “H2O2 group” and “H2O2+TC6 group” from Experiment (3-1) was handled as follows. […] The mixture was then placed in a revers transcription polymerase chain reaction (RT-PCR) machine. The RT-PCR reaction conditions were set as follows: i) 94° C. for 30 seconds, 55° C. for 30 seconds, and […] for 60 seconds, repeated for 30 cycles; ii) 72° C. for 10 minutes; and iii) cooling to 4° C. to stop the reaction. The RT-PCR product was analyzed by 2% agarose gel electrophoresis at a voltage of 100 volts for 30 minutes. Then, the gel was stained with ethidium bromide (EtBr) for 10 minutes, and photographed by a gel image documentation system (DOC PRINT DP-001FDC, VilberLourmat France).

SIRT1 gene = assay: Quantitative RT-PCR of SIRT1 gene in hBMMSCs; type: cell-based, human
Description: Three portions of equal volume of the above culture medium containing the sub-cultured hBMMSCs were provided. The first and second portions were handled by adding thereinto H2O2 at a final concentration of 100 μM, reacting for 2 hours to induce senescence of the hBMMSCs, replacing the culture medium with a fresh culture medium, adding thereinto TC at final concentrations of 0 and 6 μM respectively, and reacting for 6 hours to obtain “H2O2 group (i.e., treated with H2O2 for 2 hours, but not treated with TC)” and “H2O2+TC6 group (i.e., treated with H2O2 for 2 hours and then treated with 6 μM of TC for 6 hours) hBMMSCs. The third portion without any treatment was referred to as “untreated group” hBMMSCs. […]
Each of the cDNA of ADSCs of different groups from Experiment (3-1) was handled as follows. […] The mixture was then placed in a real-time quantitative PCR machine (ABI prism 7700 sequence detection system) to perform a reaction for quantifying the gene expression levels. […]
The steps as shown in Experiment (3-2) were repeated, but the cDNA was substituted with the cDNA of the BMMSCs or WJSCs from Experiment (3-1) to conduct quantitative RT-PCR.

[3] = H2O2+TC6 group ADSCs compared to H2O2 group
[4] = H2O2 group ADSCs compared to untreated group

## O=C/C=C/c1ccccc1 [TC, trans-cinnamaldehyde]
ADSCs [1]; H2O2-senescent ADSCs, 2, 4 and 6 μM TC 6 h, compared to H2O2 group
  number of the SA-β-gal activity-positive cells: significantly reduced
ADSCs [1]; non-senescent ADSCs, 2, 4 and 6 μM TC 6 h, compared to untreated group
  number of the SA-β-gal activity-positive cells: significantly reduced along with the increment in the concentration of TC
WJSCs; H2O2+TC6 group (6 μM TC 6 h after H2O2) compared to H2O2 group
  number of the SA-β-gal activity-positive WJSCs: significantly reduced
ADSCs [2]; [3]
  expression level of the NANOG gene (semiquantitative RT-PCR): did not show significant difference
  expression level of the OCT4 gene (semiquantitative RT-PCR): did not show significant difference
  expression level of the SIRT1 gene (semiquantitative RT-PCR): significantly increased
  expression level of the p21 gene (semiquantitative RT-PCR): significantly decreased
  expression level of the p53 gene (semiquantitative RT-PCR): significantly decreased
SIRT1 gene; H2O2+TC6 group compared to H2O2 group
  expression level of SIRT1 gene in hBMMSCs: significantly increased

## OO [H2O2, reference compound]
ADSCs [1]; ADSCs, 100 μM H2O2 2 h, compared to untreated group
  number of the SA-β-gal activity-positive cells: significantly increased
WJSCs; H2O2 group (100 μM 2 h) compared to untreated group
  number of the SA-β-gal activity-positive WJSCs: significantly increased
ADSCs [2]; [4]
  expression level of the SIRT1 gene (semiquantitative RT-PCR): significantly decreased
  expression level of the p21 gene (semiquantitative RT-PCR): significantly increased
  expression level of the p53 gene (semiquantitative RT-PCR): significantly increased
SIRT1 gene; H2O2 group compared to untreated group
  expression level of SIRT1 gene in hBMMSCs: significantly reduced
